Conditions: Liquid, Vibrating tube method

CCC(C)O (configuration not stated) [butan-2-ol]
mass density [kg/m3]
Conditions | 293.15 K | 298.15 K | 313.15 K | 333.15 K | 353.19 K | 373.24 K | 393.28 K
100 kPa | 806.7 | 802.6 | 789.6 | 770.8 | 750.3 | – | –
1000 kPa | 807.4 | 803.3 | 790.3 | 771.8 | 751.4 | 729.1 | 704.8
5000 kPa | 810.4 | 806.4 | 793.7 | 775.7 | 756 | 734.5 | 711.3
10000 kPa | 814 | 810.1 | 797.8 | 780.3 | 761.3 | 740.8 | 718.8
15000 kPa | 817.4 | 813.7 | 801.6 | 784.7 | 766.4 | 746.6 | 725.6
20000 kPa | 820.7 | 817 | 805.3 | 788.9 | 771 | 751.9 | 731.7
25000 kPa | 823.9 | 820.2 | 808.6 | 792.7 | 775.4 | 757 | 737.4
30000 kPa | 826.9 | 823.4 | 812.1 | 796.4 | 779.5 | 761.6 | 742.7
35000 kPa | 829.8 | 826.4 | 815.3 | 800 | 783.5 | 766.1 | 747.8
40000 kPa | 832.7 | 829.2 | 818.4 | 803.5 | 787.2 | 770.3 | 752.5
45000 kPa | 835.4 | 832 | 821.3 | 806.6 | 790.8 | 774.4 | 757
50000 kPa | 838.1 | 834.7 | 824.3 | 809.8 | 794.4 | 778.1 | 761.2
55000 kPa | 840.6 | 837.4 | 827.1 | 812.8 | 797.7 | 781.8 | 765.4
60000 kPa | 843.2 | 839.9 | 829.8 | 815.8 | 801 | 785.3 | 769.2
65000 kPa | 845.6 | 842.4 | 832.5 | 818.7 | 804.1 | 788.8 | 772.9
70000 kPa | 848 | 844.8 | 835 | 821.4 | 807.2 | 792.1 | 776.6
80000 kPa | 852.6 | 849.5 | 839.9 | 826.8 | 812.9 | 798.4 | 783.4
90000 kPa | 857.1 | 854.1 | 844.7 | 831.9 | 818.3 | 804.3 | 789.8
100000 kPa | 861.2 | 858.3 | 849.1 | 836.7 | 823.5 | 809.8 | 795.8
110000 kPa | 865.3 | 862.4 | 853.5 | 841.3 | 828.5 | 815.1 | 801.5
120000 kPa | 869.2 | 866.3 | 857.6 | 845.6 | 833.1 | 820.1 | 806.8
130000 kPa | 873 | 870.1 | 861.5 | 849.9 | 837.6 | 824.9 | 811.9
140000 kPa | 876.6 | 873.9 | 865.4 | 853.9 | 842 | 829.5 | 816.8

CC(C)OC(C)C [diisopropyl ether]
mass density [kg/m3]
Conditions | 293.15 K | 298.15 K | 313.15 K | 333.15 K | 353.19 K | 373.24 K | 393.28 K
100 kPa | 723.5 | 718.3 | 702.4 | 680.5 | – | – | –
1000 kPa | 724.6 | 719.6 | 703.8 | 682.1 | 659.5 | 635.6 | 609.5
5000 kPa | 729.4 | 724.5 | 709.4 | 688.9 | 667.6 | 645.5 | 622.1
10000 kPa | 734.9 | 730.2 | 715.8 | 696.4 | 676.5 | 656.1 | 635
15000 kPa | 740 | 735.6 | 721.7 | 703.2 | 684.4 | 665.3 | 645.8
20000 kPa | 744.8 | 740.5 | 727.2 | 709.4 | 691.5 | 673.5 | 655.2
25000 kPa | 749.4 | 745.2 | 732.1 | 715.1 | 698 | 680.8 | 663.5
30000 kPa | 753.7 | 749.6 | 737.1 | 720.5 | 704 | 687.6 | 671.1
35000 kPa | 757.7 | 753.7 | 741.6 | 725.6 | 709.7 | 693.8 | 677.9
40000 kPa | 761.6 | 757.8 | 745.9 | 730.3 | 714.8 | 699.6 | 684.3
45000 kPa | 765.3 | 761.6 | 750 | 734.8 | 719.7 | 705 | 690.2
50000 kPa | 768.9 | 765.2 | 753.9 | 739.1 | 724.6 | 710.1 | 695.8
55000 kPa | 772.4 | 768.8 | 757.7 | 743.1 | 728.9 | 714.9 | 701.1
60000 kPa | 775.7 | 772.2 | 761.3 | 747.1 | 733.2 | 719.5 | 705.9
65000 kPa | 778.9 | 775.4 | 764.8 | 750.9 | 737.2 | 723.9 | 710.6
70000 kPa | 782 | 778.6 | 768.1 | 754.4 | 741.1 | 728.1 | 715.2
80000 kPa | 787.9 | 784.6 | 774.4 | 761.3 | 748.4 | 735.9 | 723.5
90000 kPa | 793.5 | 790.3 | 780.5 | 767.7 | 755.4 | 743.2 | 731.3
100000 kPa | 798.8 | 795.7 | 786.1 | 773.7 | 761.6 | 750 | 738.4
110000 kPa | 803.9 | 800.8 | 791.4 | 779.4 | 767.8 | 756.3 | 745.3
120000 kPa | 808.7 | 805.6 | 796.5 | 784.7 | 773.4 | 762.3 | 751.4
130000 kPa | 813.2 | 810.3 | 801.4 | 789.9 | 778.8 | 768 | 757.4
140000 kPa | 817.6 | 814.6 | 806 | 794.8 | 784 | 773.3 | 763.1
